What follows are compounds tested against GCN2 kinase (Homo sapiens (Human), UniProt Q9P2K8) (assay: GCN2 Enzyme Inhibition Assay (Transcreener ADP2 fluorescence polarization)). Settings: 280 μM ATP, 200 μM (RS)7 peptide, 4 nM GCN2, 25° C.
GCN2 kinase, sequence (Q9P2K8 whole entry): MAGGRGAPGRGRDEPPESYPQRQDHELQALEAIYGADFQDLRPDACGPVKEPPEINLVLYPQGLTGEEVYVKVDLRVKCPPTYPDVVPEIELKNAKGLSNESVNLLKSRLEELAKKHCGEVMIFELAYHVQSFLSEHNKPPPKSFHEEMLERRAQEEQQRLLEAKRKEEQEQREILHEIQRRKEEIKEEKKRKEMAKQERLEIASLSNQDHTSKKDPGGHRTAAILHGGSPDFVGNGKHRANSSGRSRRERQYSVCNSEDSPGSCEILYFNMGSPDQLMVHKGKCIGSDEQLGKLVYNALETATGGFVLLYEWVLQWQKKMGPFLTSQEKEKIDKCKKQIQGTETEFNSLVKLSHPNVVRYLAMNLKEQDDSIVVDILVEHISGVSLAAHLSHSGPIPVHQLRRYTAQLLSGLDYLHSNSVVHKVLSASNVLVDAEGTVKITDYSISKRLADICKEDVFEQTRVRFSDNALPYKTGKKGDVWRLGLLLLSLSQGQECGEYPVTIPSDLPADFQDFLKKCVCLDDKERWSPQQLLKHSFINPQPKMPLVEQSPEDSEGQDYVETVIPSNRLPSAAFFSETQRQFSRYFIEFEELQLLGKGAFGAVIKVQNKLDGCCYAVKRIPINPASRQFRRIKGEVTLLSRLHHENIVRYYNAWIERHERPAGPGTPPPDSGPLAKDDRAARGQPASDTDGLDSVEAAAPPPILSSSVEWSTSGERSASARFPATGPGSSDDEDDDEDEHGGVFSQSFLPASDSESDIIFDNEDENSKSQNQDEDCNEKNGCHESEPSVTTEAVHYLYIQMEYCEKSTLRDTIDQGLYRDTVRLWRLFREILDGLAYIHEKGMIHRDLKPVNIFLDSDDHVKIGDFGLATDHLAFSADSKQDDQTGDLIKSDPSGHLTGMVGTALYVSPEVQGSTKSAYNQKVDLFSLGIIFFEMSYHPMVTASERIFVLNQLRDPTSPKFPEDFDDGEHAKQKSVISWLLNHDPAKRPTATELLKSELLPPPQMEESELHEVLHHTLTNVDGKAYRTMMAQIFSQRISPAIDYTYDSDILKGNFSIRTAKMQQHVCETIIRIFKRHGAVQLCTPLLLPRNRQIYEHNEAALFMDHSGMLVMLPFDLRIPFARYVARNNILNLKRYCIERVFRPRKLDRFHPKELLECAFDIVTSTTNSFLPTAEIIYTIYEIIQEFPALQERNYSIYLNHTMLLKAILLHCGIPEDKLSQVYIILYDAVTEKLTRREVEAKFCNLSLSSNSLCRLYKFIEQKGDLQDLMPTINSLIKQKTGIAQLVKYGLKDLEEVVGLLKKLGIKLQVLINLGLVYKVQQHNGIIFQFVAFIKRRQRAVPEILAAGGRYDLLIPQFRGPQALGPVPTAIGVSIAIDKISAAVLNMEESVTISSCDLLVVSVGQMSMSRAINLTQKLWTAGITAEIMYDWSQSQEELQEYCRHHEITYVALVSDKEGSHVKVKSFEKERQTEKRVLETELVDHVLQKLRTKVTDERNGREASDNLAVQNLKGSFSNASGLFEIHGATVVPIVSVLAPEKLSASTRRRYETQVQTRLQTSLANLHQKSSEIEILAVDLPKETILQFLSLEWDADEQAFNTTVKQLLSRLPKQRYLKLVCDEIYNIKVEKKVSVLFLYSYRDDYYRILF
Assay type: biochemical
Outline: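 At 25 °C, GCN2 kinase (typical final concentration 4 nM) and (RS)7 peptide in Tris-HCl pH 7.5 buffer with MgCl2, NaCl and DTT were preincubated with compound for 10 min, then ATP was added for a 1 h reaction. ADP was read by FP with antibody/Alexa633 tracer. Non-linear tight-binding analysis gave IC50 and apparent Ki.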
`CC(=O)N1CCN(c2ccnc(-c3cnc4ccc(C(F)(F)F)cn34)n2)CC1(C)C` [I-336, 1-(2,2-dimethyl-4-(2-(6-(trifluoromethyl)imidazo[1,2-a]pyridin-3-yl)pyrimidin-4-yl)piperazin-1-yl)ethan-1-one] showed an IC50 of 10 to 100 nM.
`O=C(N1CCN(c2ccnc(-c3cnc4ccc(C(F)(F)F)cn34)n2)CC1c1cn[nH]c1)C1(C(F)F)CC1` (centres unmarked) [I-488, (2-(1H-pyrazol-4-yl)-4-(2-(6-(trifluoromethyl)imidazo[1,2-a]pyridin-3-yl)pyrimidin-4-yl)piperazin-1-yl)(1-(difluoromethyl)cyclopropyl)methanone] showed an IC50 of 10 to 100 nM.
Work on `CC(C)(C)OC(=O)N1CC2(C1)CN(c1ccnc(-c3cnc4ccc(C(F)(F)F)cn34)n1)CC(C)(C)O2` [I-292, tert-butyl 6,6-dimethyl-8-(2-(6-(trifluoromethyl)imidazo[1,2-a]pyridin-3-yl)pyrimidin-4-yl)-5-oxa-2,8-diazaspiro[3.5]nonane-2-carboxylate] yielded an IC50 of 100 to 1000 nM.
In the case of `NC(=O)CC1CCCN(c2ccnc(-c3cnc4ccc(Cl)cn34)n2)C1` (centres unmarked) [I-162, 2-(1-(2-(6-chloroimidazo[1,2-a]pyridin-3-yl)pyrimidin-4-yl)piperidin-3-yl)acetamide], the IC50 is reported as 10 to 100 nM.
Work on `CC(C)(C)OC(=O)C1(O)CCCN(c2ccnc(-c3cnc4ccc(C(F)(F)F)cn34)n2)C1` (centres unmarked) [I-212, tert-butyl 3-hydroxy-1-(2-(6-(trifluoromethyl)imidazo[1,2-a]pyridin-3-yl)pyrimidin-4-yl)piperidine-3-carboxylate] yielded an IC50 of 100 to 1000 nM.
Work on `O=C([C@H]1C[C@H]1F)N1CCN(c2ccnc(-c3cnc4ccc(C(F)(F)F)cn34)n2)CC1c1cn[nH]c1` (stereo in doubt) [I-485, (2-(1H-pyrazol-4-yl)-4-(2-(6-(trifluoromethyl)imidazo[1,2-a]pyridin-3-yl)pyrimidin-4-yl)piperazin-1-yl)((1R,2R)-2-fluorocyclopropyl)methanone] yielded an IC50 of 10 to 100 nM.
`CC1C(C(N)=O)NCCN1c1ccnc(-c2cnc3ccc(C(F)F)cn23)n1` (centres unmarked) [I-378, 4-(2-(6-(difluoromethyl)imidazo[1,2-a]pyridin-3-yl)pyrimidin-4-yl)-3-methylpiperazine-2-carboxamide] showed an IC50 of 10 to 100 nM.
`Cc1noc([C@H]2CN(c3ccnc(-c4cnc5ccc(C(F)F)cn45)n3)C[C@@H](C)O2)n1` [I-375, (2R,6R)-4-(2-(6-(difluoromethyl)imidazo[1,2-a]pyridin-3-yl)pyrimidin-4-yl)-2-methyl-6-(3-methyl-1,2,4-oxadiazol-5-yl)morpholine] was tested, and the IC50 was 10 to 100 nM.
`NC(=O)[C@@H]1CN(c2ccnc(-c3cnc4ccc(Cl)cn34)n2)CCN1C1CC1` [I-350, (s)-4-(2-(6-chloroimidazo[1,2-a]pyridin-3-yl)pyrimidin-4-yl)-1-cyclopropylpiperazine-2-carboxamide] was tested, and the IC50 was 100 to 1000 nM.
`C[C@@H]1C[C@H](N=S(C)(C)=O)CN(c2ccnc(-c3cnc4ccc(N5CC(F)C5)cn34)n2)C1` [I-330, (((3 S,5R)-1-(2-(6-(3-fluoroazetidin-1-yl)imidazo[1,2-a]pyridin-3-yl)pyrimidin-4-yl)-5-methylpiperidin-3-yl)imino)dimethyl-λ6-sulfanone] gave an IC50 of 100 to 1000 nM.
`OCc1cn(C2CCCN(c3ccnc(-c4cnc5ccc(C(F)(F)F)cn45)n3)C2)nn1` (centres unmarked) [I-382, (1-(1-(2-(6-(trifluoromethyl)imidazo[1,2-a]pyridin-3-yl)pyrimidin-4-yl)piperidin-3-yl)-1H-1,2,3-triazol-4-yl)methanol] was tested, and the IC50 was 100 to 1000 nM.
`N#CC1(C(=O)N2CCN(c3nccc(-c4cnc5ccc(C(F)(F)F)cn45)n3)C[C@@H]2c2cn[nH]c2)CC1` (stereo in doubt) [I-551, 1-(2-(1H-pyrazol-4-yl)-4-(4-(6-(trifluoromethyl)imidazo[1,2-a]pyridin-3-yl)pyrimidin-2-yl)piperazine-1-carbonyl)cyclopropane-1-carbonitrile] showed an IC50 of 10 to 100 nM.
`NC(=O)[C@@H]1CCCN(c2ccnc(-c3cnc4ccc(Cl)cn34)n2)C1` [I-164, (R)-1-(2-(6-chloroimidazo[1,2-a]pyridin-3-yl)pyrimidin-4-yl)piperidine-3-carboxamide] was tested, and the IC50 was 10 to 100 nM.
`CC(C)(O)C(=O)N1CCN(c2ccnc(-c3cnc4ccc(C(F)(F)F)cn34)n2)CC1c1cn[nH]c1` (centres unmarked) [I-514, 1-(2-(1H-pyrazol-4-yl)-4-(2-(6-(trifluoromethyl)imidazo[1,2-a]pyridin-3-yl)pyrimidin-4-yl)piperazin-1-yl)-2-hydroxy-2-methylpropan-1-one] gave an IC50 of 100 to 1000 nM.
`C[C@H]1C[C@@H](N=S(C)(C)=O)CN(c2ccnc(-c3cnc4ccc(S(=O)(=O)NC5CC5)cn34)n2)C1` [I-319, N-cyclopropyl-3-(4-((3R,5S)-3-((dimethyl(oxo)-λ6-sulfaneylidene)amino)-5-methylpiperidin-1-yl)pyrimidin-2-yl)imidazo[1,2-a]pyridine-6-sulfonamide] showed an IC50 of 100 to 1000 nM.
`C[C@@H]1CN(c2ccnc(-c3cnc4ccc(C(F)(F)F)cn34)n2)C[C@@H](C(N)=O)O1` [I-265, (2S,6R)-6-methyl-4-(2-(6-(trifluoromethyl)imidazo[1,2-a]pyridin-3-yl)pyrimidin-4-yl)morpholine-2-carboxamide] was tested, and the IC50 was 10 to 100 nM.
`NC(=O)[C@H]1CN(c2ccnc(-c3cnc4ccc(C(F)(F)F)cn34)n2)CCO1` [I-151, (R)-4-(2-(6-(trifluoromethyl)imidazo[1,2-a]pyridin-3-yl)pyrimidin-4-yl)morpholine-2-carboxamide] gave an IC50 of 100 to 1000 nM.
Work on `CC(=O)N1C(C)CN(c2ccnc(-c3cnc4ccc(Cl)cn34)n2)CC1c1c[nH]nc1C` (centres unmarked) [I-276, 1-(4-(2-(6-chloroimidazo[1,2-a]pyridin-3-yl)pyrimidin-4-yl)-2-methyl-6-(3-methyl-1H-pyrazol-4-yl)piperazin-1-yl)ethan-1-one] yielded an IC50 of 100 to 1000 nM.
In the case of `C[C@H]1[C@@H](c2cn[nH]c2)NCCN1c1ccnc(-c2cnc3ccc(C(F)(F)F)cn23)n1` [I-534, 3-(4-((2 S,3R)-2-methyl-3-(1H-pyrazol-4-yl)piperazin-1-yl)pyrimidin-2-yl)-6-(trifluoromethyl)imidazo[1,2-a]pyridine], the IC50 is reported as 100 to 1000 nM.
With `Cc1nnc(C)n1[C@@H]1C[C@H](C)CN(c2nccc(-c3cnc4ccc(C(F)(F)F)cn34)n2)C1` [I-463, 3-(2-((3R,5S)-3-(3,5-dimethyl-4H-1,2,4-triazol-4-yl)-5-methylpiperidin-1-yl)pyrimidin-4-yl)-6-(trifluoromethyl)imidazo[1,2-a]pyridine] the IC50 was 10 to 100 nM.
With `CC(C)(C)OC(=O)N1CCN(c2ccnc(-c3cnc4ccc(C(F)(F)F)cn34)n2)CC1C(N)=O` (centres unmarked) [I-207, tert-butyl 2-carbamoyl-4-(2-(6-(trifluoromethyl)imidazo[1,2-a]pyridin-3-yl)pyrimidin-4-yl)piperazine-1-carboxylate] the IC50 was 100 to 1000 nM.
`CC(C)(C)OC(=O)NC1CN(c2ccnc(-c3cnc4ccc(Cl)cn34)n2)CC[C@H]1O` (stereo in doubt) [I-243, tert-butyl ((3R,4R)-1-(2-(6-chloroimidazo[1,2-a]pyridin-3-yl)pyrimidin-4-yl)-4-hydroxypiperidin-3-yl)carbamate] was tested, and the IC50 was 100 to 1000 nM.
Work on `C[C@@H]1C[C@@H](N)CN(c2ccnc(-c3cnc4ccc(Cl)cn34)n2)C1` [I-256, (3R,5R)-1-(2-(6-chloroimidazo[1,2-a]pyridin-3-yl)pyrimidin-4-yl)-5-methylpiperidin-3-amine] yielded an IC50 of 100 to 1000 nM.
`NC(=O)C1CC12CCCN(c1ccnc(-c3cnc4ccc(Cl)cn34)n1)C2` (centres unmarked) [I-132, 5-(2-(6-chloroimidazo[1,2-a]pyridin-3-yl)pyrimidin-4-yl)-5-azaspiro[2.5]octane-1-carboxamide] showed an IC50 of 10 to 100 nM.
`C[C@H]1CN(c2ccnc(-c3cnc4ccc(C(F)(F)F)cn34)n2)C[C@H](C(N)=O)O1` [I-129, (2R,6 S)-6-methyl-4-(2-(6-(trifluoromethyl)imidazo[1,2-a]pyridin-3-yl)pyrimidin-4-yl)morpholine-2-carboxamide] gave an IC50 of 10 to 100 nM.
Work on `NC(=O)C1CCCN(c2nc(-c3cnc4ccc(C(F)(F)F)cn34)ncc2F)C1` (stereo in doubt) [I-282, (S)-1-(5-fluoro-2-(6-(trifluoromethyl)imidazo[1,2-a]pyridin-3-yl)pyrimidin-4-yl)piperidine-3-carboxamide] yielded an IC50 of 100 to 1000 nM.
For `C[C@@H]1CN(c2ccnc(-c3cnc4ccc(C(F)(F)F)cn34)n2)C[C@H](C)N1CC(F)(F)F` [I-410, 3-(4-(cis-3,5-dimethyl-4-(2,2,2-trifluoroethyl)piperazin-1-yl)pyrimidin-2-yl)-6-(trifluoromethyl)imidazo[1,2-a]pyridine], the IC50 was 100 to 1000 nM.
`C[C@H]1[C@@H](CNS(C)(=O)=O)NCCN1c1ccnc(-c2cnc3ccc(C(F)(F)F)cn23)n1` [I-436, N-(((2R,3 S)-3-methyl-4-(2-(6-(trifluoromethyl)imidazo[1,2-a]pyridin-3-yl)pyrimidin-4-yl)piperazin-2-yl)methyl)methanesulfonamide] gave an IC50 of 10 to 100 nM.

Same assay, conditions: Ki(app); 280 μM ATP, 200 μM (RS)7 peptide, 4 nM GCN2, 25° C.
For `Cc1noc([C@@H]2CN(c3ccnc(-c4cnc5ccc(C#N)cn45)n3)C[C@H](C)O2)n1` [I-91, 3-{4-[(2S,6S)-2-methyl-6-(3-methyl-1,2,4-oxadiazol-5-yl)morpholin-4-yl]pyrimidin-2-yl}imidazo[1,2-a]pyridine-6-carbonitrile], the Ki was 10 to 100 nM.
For `Cc1nnc([C@@H]2CN(c3ccnc(-c4cnc5ccc(C(F)(F)F)cn45)n3)C[C@H](C)O2)o1` (relative stereo) [I-93, cis-2-methyl-6-(5-methyl-1,3,4-oxadiazol-2-yl)-4-{2-[6-(trifluoromethyl)imidazo[1,2-a]pyridin-3-yl]pyrimidin-4-yl}morpholine], the Ki was 10 to 100 nM.
For `Cn1cc(NC(=O)[C@H]2CCCN(c3ccnc(-c4cnc5cc(F)c(Cl)cn45)n3)C2)cn1` [I-77, (S)-1-[2-(6-Chloro-7-fluoro-imidazo[1,2-a]pyridin-3-yl)-pyrimidin-4-yl]-piperidine-3-carboxylic acid (1-methyl-1H-pyrazol-4-yl)-amide], the Ki was 100 to 1000 nM.
With `N[C@H]1CCCN(c2ccnc(-c3cnc4ccc(Cl)cn34)n2)C1` [I-87, (3S)-1-(2-{6-chloroimidazo[1,2-a]pyridine-3-yl}pyrimidin-4-yl)piperidin-3-amine] the Ki was 100 to 1000 nM.

— patent US10793563B2, “GCN2 inhibitors and uses thereof” (Merck Patent GmbH, priority 2018, dated 2020)
